These are literature values, as cited in publication PMC9916685, “Discovery of Small Molecule COX-1 and Akt Inhibitors as Anti-NSCLC Agents Endowed with Anti-Inflammatory Action” (International Journal of Molecular Sciences, 2023).

The structures appear in SMILES notation.

The test system of the data set is Akt. Also noted: method as in doi:10.2174/1570180817999200618163507. The following applies: 5RP7 H-ras oncogene transformed rat embryonic fibroblast cell line; cited from earlier work.

On to `COc1ccc(-c2ccnc(SCC(=O)NN=Cc3ccccc3)n2)cc1` [N′-benzylidene-2-[(4-(4-methoxyphenyl)pyrimidin-2-yl)thio]acetohydrazide], for which the “inhibition of Akt IC50” value is 0.50 µg/mL.
